Read-outs that look alike come from different tables or passages of the source.
Experiments:
[1] = Solubility comparison of spray dried amorphous powder samples; assay type: physicochemical; details: room temperature
Method: Hereinafter, unless specified otherwise, the solubility of material is determined in RO (reverse osmosis) water at room temperature. Where the solubility is expressed as “%” it to be understood as number of grams of material soluble in 100 grams of solvent.

[2] = cited from earlier work
[3] = background description of Rebaudioside A forms, % = grams soluble in 100 grams of solvent, cited from earlier work
[4] = Solubility in RO water at room temperature; assay type: physicochemical; details: % = grams soluble in 100 grams of solvent
Method: Hereinafter, unless specified otherwise, the solubility of material is determined in RO (reverse osmosis) water at room temperature.

Compound	Observation (solubility) ([1]; at 5% in water)	Observation (solubility) ([1]; at 10% in water)	Observation (solubility) ([1]; at 20% in water)	Observation (solubility) ([1]; at 30% in water)	Rate of dissolution in H2O at 25° C. ([2]; grade in words)	further results
C=C1C[C@@]23CC[C@H]4[C@@](C)(CCC[C@@]4(C)C(=O)O[C@@H]4O[C@H](CO)[C@@H](O)[C@H](O)[C@H]4O)[C@@H]2CC[C@]1(O[C@@H]1O[C@H](CO)[C@@H](O)[C@H](O[C@@H]2O[C@H](CO)[C@@H](O)[C@H](O)[C@H]2O)[C@H]1O[C@@H]1O[C@H](CO)[C@@H](O)[C@H](O)[C@H]1O)C3 [Sample #2, Rebaudioside A]	Clear solution	Clear solution	Slightly cloudy	Cloudy solution	–	–
C=C1C[C@@]23CC[C@H]4[C@@](C)(CCC[C@@]4(C)C(=O)O[C@@H]4O[C@H](CO)[C@@H](O)[C@H](O)[C@H]4O)[C@@H]2CC[C@]1(O[C@@H]1O[C@H](CO)[C@@H](O)[C@H](O[C@@H]2O[C@H](CO)[C@@H](O)[C@H](O)[C@H]2O)[C@H]1O[C@@H]1O[C@H](CO)[C@@H](O)[C@H](O)[C@H]1O)C3 [Form 3, Rebaudioside A]	–	–	–	–	High	Rate of dissolution in H2O at 25° C. ([2]; in 5 minutes): > 30%
C=C1C[C@@]23CC[C@H]4[C@@](C)(CCC[C@@]4(C)C(=O)O[C@@H]4O[C@H](CO)[C@@H](O)[C@H](O)[C@H]4O)[C@@H]2CC[C@]1(O[C@@H]1O[C@H](CO)[C@@H](O)[C@H](O[C@@H]2O[C@H](CO)[C@@H](O)[C@H](O)[C@H]2O)[C@H]1O[C@@H]1O[C@H](CO)[C@@H](O)[C@H](O)[C@H]1O)C3 [Form 1, Rebaudioside A]	–	–	–	–	Very low	Rate of dissolution in H2O at 25° C. ([2]; in 60 minutes): (<0.2% in 60; solubility ([3]; listed as hydrate form): less than 0.2%
C=C1C[C@@]23CC[C@H]4[C@@](C)(CCC[C@@]4(C)C(=O)O[C@@H]4O[C@H](CO)[C@@H](O)[C@H](O)[C@H]4O)[C@@H]2CC[C@]1(O[C@@H]1O[C@H](CO)[C@@H](O)[C@H](O[C@@H]2O[C@H](CO)[C@@H](O)[C@H](O)[C@H]2O)[C@H]1O[C@@H]1O[C@H](CO)[C@@H](O)[C@H](O)[C@H]1O)C3 [Form 4, Rebaudioside A]	–	–	–	–	High	Rate of dissolution in H2O at 25° C. ([2]; in 5 minutes): > 35%
C=C1C[C@@]23CC[C@H]4[C@@](C)(CCC[C@@]4(C)C(=O)O[C@@H]4O[C@H](CO)[C@@H](O)[C@H](O)[C@H]4O)[C@@H]2CC[C@]1(O[C@@H]1O[C@H](CO)[C@@H](O)[C@H](O[C@@H]2O[C@H](CO)[C@@H](O)[C@H](O)[C@H]2O)[C@H]1O[C@@H]1O[C@H](CO)[C@@H](O)[C@H](O)[C@H]1O)C3 [Crystalline Rebaudioside A, Rebaudioside A]	–	–	–	–	–	solubility [3]: 1%-2%
C=C1C[C@@]23CC[C@H]4[C@@](C)(CCC[C@@]4(C)C(=O)O[C@@H]4O[C@H](CO)[C@@H](O)[C@H](O)[C@H]4O)[C@@H]2CC[C@]1(O[C@@H]1O[C@H](CO)[C@@H](O)[C@H](O[C@@H]2O[C@H](CO)[C@@H](O)[C@H](O)[C@H]2O)[C@H]1O[C@@H]1O[C@H](CO)[C@@H](O)[C@H](O)[C@H]1O)C3 [rebaudioside A]	–	–	–	–	–	solubility in water [4]: 0.6%
C=C1C[C@@]23CC[C@H]4[C@@](C)(CCC[C@@]4(C)C(=O)O[C@@H]4O[C@H](CO)[C@@H](O)[C@H](O)[C@H]4O)[C@@H]2CC[C@]1(O[C@@H]1O[C@H](CO)[C@@H](O)[C@H](O[C@@H]2O[C@H](CO)[C@@H](O)[C@H](O)[C@H]2O)[C@H]1O[C@@H]1O[C@H](CO)[C@@H](O)[C@H](O)[C@H]1O)C3 [Sample #1, Rebaudioside A]	Clear solution	Slightly cloudy	Cloudy solution	Undissolved matter	–	–
C=C1C[C@@]23CC[C@H]4[C@@](C)(CCC[C@@]4(C)C(=O)O[C@@H]4O[C@H](CO)[C@@H](O)[C@H](O)[C@H]4O)[C@@H]2CC[C@]1(O[C@@H]1O[C@H](CO)[C@@H](O)[C@H](O[C@@H]2O[C@H](CO)[C@@H](O)[C@H](O)[C@H]2O)[C@H]1O[C@@H]1O[C@H](CO)[C@@H](O)[C@H](O)[C@H]1O)C3 [highly soluble amorphous form of rebaudioside A]	–	–	–	–	–	solubility in water [4]: greater than 30%
C=C1C[C@@]23CC[C@H]4[C@@](C)(CCC[C@@]4(C)C(=O)O[C@@H]4O[C@H](CO)[C@@H](O)[C@H](O)[C@H]4O)[C@@H]2CC[C@]1(O[C@@H]1O[C@H](CO)[C@@H](O)[C@H](O[C@@H]2O[C@H](CO)[C@@H](O)[C@H](O)[C@H]2O)[C@H]1O[C@@H]1O[C@H](CO)[C@@H](O)[C@H](O)[C@H]1O)C3 [Form 2, Rebaudioside A]	–	–	–	–	Intermediate	solubility ([3]; listed as anhydrous form): up to 30%
C=C1C[C@@]23CC[C@H]4[C@@](C)(CCC[C@@]4(C)C(=O)O[C@@H]4O[C@H](CO)[C@@H](O)[C@H](O)[C@H]4O)[C@@H]2CC[C@]1(O[C@@H]1O[C@H](CO)[C@@H](O)[C@H](O[C@@H]2O[C@H](CO)[C@@H](O)[C@H](O)[C@H]2O)[C@H]1O[C@@H]1O[C@H](CO)[C@@H](O)[C@H](O)[C@H]1O)C3 [Sample #3, Rebaudioside A]	Clear solution	Clear solution	Clear solution	Clear solution	–	Observation (solubility) ([1]; at 40% in water): Slightly cloudy

Reference: patent US11856974B2, “Highly soluble stevia sweetener” (PureCircle Sdn Bhd, priority 2011, dated 2024)
